Legend:
[1] = system: Neuro 2A, AJ3.1, bEND.3, 16HBE14o-, ΣCFTE29o- cells and primary PVSMCs; assay: In vitro transfection, luciferase reporter, statements covering several or all cell types studied; assay type: cell-based; settings: for transfection efficiency of cleavable (RVRR) peptide compared with equivalent non-cleavable peptide control: Neuro 2A, bEND.3 and 16HBE14o- cells, stated for 'most' of the peptides, controls P1, P6, FMM12, PE, PY; for transfection efficiency, rank among PEG-acetal pH-sensitive lipids: all the cells, lipid/DOPE complexed to peptide 6 or E and pCI-Luc 2:4:1
Protocol: (§1) Cells were seeded into 96-well plates at 2.5×10^3 cells per well for bEND.3 cells and at 2×10^4 cells per well for all the other cells, then incubated overnight at 37° C. in complete growth medium. The following day, lipopolyplex (LPD) formulations were prepared essentially as described previously (Hart et al., 1998), by mixing the components in the following order: 50 μl of lipid (L) at 80 μg/ml in OptiMEM, 70 μl of peptide (P) at 110 μg/ml in OptiMEM and 50 μl of plasmid pCI-Luc (D) at 40 μg/ml in OptiMEM corresponding to a weight ratio of 2:4:1, respectively. All the complexes were mixed by pipetting briefly, kept for 1 h at room temperature and then diluted in OptiMEM to a final volume of 1.57 ml. Two hundred microliters of complexes corresponding at 0.25 μg of plasmid DNA were added to each culture well after removal of the complete growth medium. All the transfections were carried out in 6 wells each. A centrifugation (1500 rpm, during 5 minutes) could be performed to promote the complex sedimentation and cell contact. The cells were incubated with the complexes for 4 h at 37° C. before replacing with fresh media for 24 h, after which reporter gene expression was analysed by luciferase assay (Promega, Madison, Wis., USA). For bEND.3 cells, 5 mM sodium butyrate was added to the transfection medium and to the fresh media to achieve optimal expression levels.
(§2) Cells were washed once with PBS before the addition of 20 μl of 1× Reporter Lysis Buffer (Promega, Madison, Wis., USA) to the cells for 20 min at 4° C. before freezing at −80° C. for at least 30 min, followed by thawing at room temperature. Then the luciferase activity was measured during 10 seconds using the Luciferase Assay System (Promega, Madison, Wis., USA) and a Lucy-1 Luminometer (Anthos Ltd., Salzburg, Austria). The amount of protein present in each transfection lysate was determined with the Bio-Rad (Hercules, Calif., USA) protein assay reagent by the manufacturer's instructions, adding 20 μl from the luciferase test to 180 μl of the reagent diluted 1 in 5 and incubating at room temperature for 10 min before comparing the OD590 to a range of BSA standards. In vitro luciferase activity was expressed as Relative Light Units (RLU) per milligram of protein (RLU/mg).

[2] = Hydrolysis studies of PEG-acetal cleavable lipids; assay type: physicochemical; settings: pH at which hydrolysis was observed; 37° C., pH range 3 to 7; TLC, confirmed by mass spectrometry
Protocol: Hydrolysis of the PEG-acetal lipids was investigated at 37° C. over a pH range of 3 to 7.
Acid hydrolysis of the compounds was monitored by TLC, and cleavage was then confirmed by mass spectrometry. An example of the TLC analysis method used for compound JBW389 is shown FIG. 4 with a control (the cleaved acetal product, the corresponding aldehyde) and the pH at which hydrolysis for all of the compounds prepared was observed is given in Table II.

16HBE14o- cells = assay: In vitro transfection with LPD/LD complexes, luciferase reporter (pCI-Luc); assay type: cell-based, human; settings: complexed to peptide E, p<0.05
Protocol: (§3) Cells were seeded into 96-well plates at 2.5×10^3 cells per well for bEND.3 cells and at 2×10^4 cells per well for all the other cells, then incubated overnight at 37° C. in complete growth medium. The following day, lipopolyplex (LPD) formulations were prepared essentially as described previously (Hart et al., 1998), by mixing the components in the following order: 50 μl of lipid (L) at 80 μg/ml in OptiMEM, 70 μl of peptide (P) at 110 μg/ml in OptiMEM and 50 μl of plasmid pCI-Luc (D) at 40 μg/ml in OptiMEM corresponding to a weight ratio of 2:4:1, respectively. […] The cells were incubated with the complexes for 4 h at 37° C. before replacing with fresh media for 24 h, after which reporter gene expression was analysed by luciferase assay (Promega, Madison, Wis., USA). […]
(§4) Cells were washed once with PBS before the addition of 20 μl of 1× Reporter Lysis Buffer (Promega, Madison, Wis., USA) to the cells for 20 min at 4° C. before freezing at −80° C. for at least 30 min, followed by thawing at room temperature. Then the luciferase activity was measured during 10 seconds using the Luciferase Assay System (Promega, Madison, Wis., USA) and a Lucy-1 Luminometer (Anthos Ltd., Salzburg, Austria). […] In vitro luciferase activity was expressed as Relative Light Units (RLU) per milligram of protein (RLU/mg).

ΣCFTE29o- cells = assay: as above; assay type: cell-based, human; settings: complexed to peptide E, p<0.05
Protocol: as §3, §4

Neuro 2A cells = assay: as above; assay type: cell-based, mouse
Protocol: as §1, with “For bEND.3 cells, 5 mM sodium butyrate was added to the transfection medium and to the fresh media to achieve optimal expression levels.” left out
as §2, with “In vitro luciferase activity was expressed as Relative Light Units (RLU) per milligram of protein (RLU/mg).” left out

bEND.3 cells = assay: as above; assay type: cell-based, mouse; settings: complexed to peptide E, p<0.05
Protocol: as §1, with “For bEND.3 cells, 5 mM sodium butyrate was added to the transfection medium and to the fresh media to achieve optimal expression levels.” left out
as §2, with “In vitro luciferase activity was expressed as Relative Light Units (RLU) per milligram of protein (RLU/mg).” left out

[3] = system: primary porcine vascular smooth muscle cells (PVSMCs); assay: as above; assay type: cell-based; settings: complexed to peptide E, p<0.05
Protocol: as §3, §4

[4] = system: female A/J mice bearing a tumour (Neuro 2A); assay: In vivo transfection, i.v., luciferase expression in tumours and organs; set-up: species or system mouse; settings: peptide complexed to lipid ME42/DOPE and pCI-Luc, 24 hours, p>0.05
Protocol: All animal procedures were approved and licensed by the Home Office and performed to the standards required by the UK Co-ordinating Committee on Cancer Research (UKCCCR) (Workman et al., British Journal of Cancer, 1998, 77, 1-10). Female A/J mice (Harlan Laboratories, U.K) of 8-12 weeks old were injected subcutaneously in the right posterior flank with 1.5×10^6 Neuro 2A cells. After 10±2 days, when tumors had reached approximately 8-12 mm in size, 100 μl of LPD complexes made in 5% glucose and containing 50 ug pCI-Luc or pAB 11 were injected into the tail vein. Experiments were carried out at least six times. Twenty-four hours after injection, mice were killed and tumours and organs were resected and stored at −80° C. Tissues were defrosted in ice, submersed in reporter gene assay lysis buffer (Roche, Germany), homogenized with an IKA homogenizer (IKA, Staufen, Germany) and centrifuged at 4600 rpm during 10 min at 4° C. The supernatant was got back and centrifuged at 13000 rpm during 10 min at 4° C. Luciferase activity in the tissue lysates was measured using a FLUOstar Optima (BMG Labtech, UK) during 30 seconds and was expressed as RLU per milligram of protein (RLU/mg). Two million RLU/30 sec correspond to 1 ng luciferase.

[5] = lipofectin:peptide:pCI-Luc 2:4:1

Hydrolysis pH [2] | Compound | transfection efficiency of cleavable (RVRR) peptide compared with equivalent non-cleavable peptide control [1, 5] | transfection efficiency, rank among PEG-acetal pH-sensitive lipids [1] | further results
 | (K)16RVRRGACYGLPHKFCG [PCY] | as or more efficient |  | 
 | (K)16RVRRGACRGDMFGCA [ME68] | as or more efficient |  | 
3.5 | CCCCCCCC/C=C\CCCCCCCCOCC(C[N+](C)(C)CCCCCC(OCCOCCO)OCCOCCO)OCCCCCCCC/C=C\CCCCCCCC (centres unmarked) [JBW411, N-(2,3-bis((Z)-octadec-9-enyloxy)propyl)-6,6-bis(2-(2-hydroxyethoxy)ethoxy)-N,N-dimethylhexan-1-aminium chloride] |  | less efficient | 
3.0 | CCCCCCCC/C=C\CCCCCCCCOCC(C[N+](C)(C)CCCCCC(OCCOCCOCCOCCO)OCCOCCOCCOCCO)OCCCCCCCC/C=C\CCCCCCCC (centres unmarked) [JBW412] |  | less efficient | 
 | (K)16RVRRGACRRETAWACG [FMM8] | as or more efficient |  | 
 | (K)16RVRRGACSERSMNFCG [ME69] | as or more efficient |  | 
3.0 | CCCC/C=C\CCCCCCCCCCOCC(C[N+](C)(C)CCCCCC(OCCOCCO)OCCOCCO)OCCCCCCCCCC/C=C\CCCC (centres unmarked) [JBW418, N-(2,3-Bis((Z)-hexadec-11-enyloxy)propyl)-6,6-bis(2-(2-hydroxyethoxy)ethoxy)-N,N-dimethylhexan-1-aminium chloride] |  | less efficient | 
5.5 | CCCCCCCC/C=C\CCCCCCCCOCC(C[N+](C)(C)CCCC(OCCOCCO)OCCOCCO)OCCCCCCCC/C=C\CCCCCCCC (centres unmarked) [JBW389, N-(2,3-Bis((Z)-octadec-9-enyloxy)propyl)-4,4-bis(2-(2-hydroxyethoxy)ethoxy)-N,N-dimethylbutan-1-aminium chloride] |  | the best lipids for transfection | transfection efficiency relative to non-cleavable lipid JBW456 (16HBE14o- cells): 6 times; transfection efficiency relative to non-cleavable lipid JBW456 (ΣCFTE29o- cells): 2 times
5.0 | CCCCCCCC/C=C\CCCCCCCCOCC(C[N+](C)(C)CCCCCC(OCCOCCOC)OCCOCCOC)OCCCCCCCC/C=C\CCCCCCCC (centres unmarked) [JBW413, N-(2,3-Bis((Z)-octadec-9-enyloxy)propyl)-6,6-bis(2-(2-methoxyethoxy)ethoxy)-N,N-dimethylhexan-1-aminium chloride] |  | the best lipids for transfection | transfection efficiency compared with non-cleavable lipid JBW456 (Neuro 2A cells; complexed to peptide E, p>0.05): as efficient as JBW456
4.0 | CCCCCCCC/C=C\CCCCCCCCOCC(C[N+](C)(C)CCCCCCCC(OCCOCCO)OCCOCCO)OCCCCCCCC/C=C\CCCCCCCC (centres unmarked) [JBW400, N-(2,3-bis((Z)-octadec-9-enyloxy)propyl)-8,8-bis(2-(2-hydroxyethoxy)ethoxy)-N,N-dimethyloctan-1-aminium chloride] |  | the best lipids for transfection | transfection efficiency relative to non-cleavable lipid JBW456 (bEND.3 cells): 2 times; transfection efficiency relative to non-cleavable lipid JBW456 [3]: 4 times
 | (K)16RVRRGACRGDCLG [ME27] | as or more efficient |  | transfection efficiency compared with non-cleavable peptide ME61 (Neuro 2A cells; [5]): as efficient as the non-cleavable control peptide ME61; transfection efficiency, rank among cleavable peptides ME27, ME28, ME29 ([1]; lipofectin:peptide:pCI-Luc 2:4:1, each of Neuro 2A, AJ3.1, bEND.3, 16HBE14o-, ΣCFTE29o-, PVSMCs, p<0.05): significantly the best cleavable peptide; transfection efficiency compared with non-cleavable peptide ME61 ([1]; lipofectin:peptide:pCI-Luc 2:4:1, other cell lines than Neuro 2A, p<0.05): significantly more efficient than ME61; luciferase expression in tumour, by peptide [4]: 105000 RLU/mg
